Experimental data from ChEMBL document CHEMBL1201862, “PubChem BioAssay data set” (2004).
The source made the active and inactive calls. No stated cut-off is given here; in the data, actives have a measured IC50 and inactives only a lower limit.

These molecules were tested against Envelope glycoprotein gp160 (Human immunodeficiency virus 1, UniProt Q6QLK5) (assay: inhibitors of HIV fusion peptide binding, primary screen, biochemical, uHTS, fluorescence dequenching (AID 1986)).
Sequence of Envelope glycoprotein gp160 (Q6QLK5 whole entry, the tested form may be a part): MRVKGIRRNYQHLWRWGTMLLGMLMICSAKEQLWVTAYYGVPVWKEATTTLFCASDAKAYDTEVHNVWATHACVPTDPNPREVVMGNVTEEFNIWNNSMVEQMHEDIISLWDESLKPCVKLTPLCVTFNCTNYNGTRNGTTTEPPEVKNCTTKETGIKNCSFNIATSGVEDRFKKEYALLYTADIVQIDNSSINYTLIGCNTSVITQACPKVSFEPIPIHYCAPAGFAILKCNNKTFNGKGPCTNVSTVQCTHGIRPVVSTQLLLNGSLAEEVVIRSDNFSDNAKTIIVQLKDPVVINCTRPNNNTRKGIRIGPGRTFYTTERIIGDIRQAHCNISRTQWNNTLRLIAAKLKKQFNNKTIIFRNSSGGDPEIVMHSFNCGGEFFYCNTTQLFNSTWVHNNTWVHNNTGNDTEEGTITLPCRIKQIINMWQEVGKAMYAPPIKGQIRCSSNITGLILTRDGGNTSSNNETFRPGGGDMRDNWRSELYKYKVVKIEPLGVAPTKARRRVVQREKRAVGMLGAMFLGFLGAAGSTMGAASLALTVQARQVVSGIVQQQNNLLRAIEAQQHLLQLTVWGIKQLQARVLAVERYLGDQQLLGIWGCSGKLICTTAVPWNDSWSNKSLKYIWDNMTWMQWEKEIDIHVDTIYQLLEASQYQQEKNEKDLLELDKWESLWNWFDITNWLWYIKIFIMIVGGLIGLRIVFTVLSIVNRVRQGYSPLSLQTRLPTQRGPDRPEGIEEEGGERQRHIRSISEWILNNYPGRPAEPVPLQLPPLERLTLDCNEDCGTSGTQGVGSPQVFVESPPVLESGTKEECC
In the case of `O=C(NCCc1ccccc1)c1ccc2c(=O)[nH]c3c(C(=O)NCC4CCCO4)sc(=S)n3c2c1` (centres undefined), the IC50 is reported as 27.8 µM (active). In the case of `O=C(O)c1ccc(/C=N/NC(=O)c2ccc(CN3c4cccc5cccc(c45)S3(=O)=O)cc2)cc1`, the IC50 is reported as 19.7 µM (active). For `COc1ccc(-c2cc(-c3ccc(Cl)cc3)c(C#N)c(SCC(=O)O)n2)cc1`, the IC50 was 19.4 µM (active). With `CCOc1cc(/C=C2\C(=O)N(c3cccc(C(=O)O)c3)N=C2C(F)(F)F)ccc1OCC(=O)Nc1ccccc1OC` the IC50 was 3.88 µM (active).
